8 molecules from patent US5006531A, “5,6-dihydro(1H-indolo(3,2-C)quinoline-6,4'-piperidines) and related compounds which are useful for treating pain, psychosis or convulsions” (Hoechst-Roussel Pharmaceuticals Inc., priority 1989, dated 1991) can be followed below.

Structures can show the parent of a compound that is named as a salt.

What all share (type): in vivo
One assay relates to CK-1 male mice. Nature of the assay: climbing mice assay (apomorphine-induced climbing, antipsychotic activity). Conditions: Mus musculus, apomorphine 1.5 mg/kg s.c. The protocol:
Antipsychotic activity is determined in the climbing mice assay by methods similar to those described by P. Protais, et al., Psychopharmacol., 50, 1 (1976) and B. Costall, Eur. J. Pharmacol., 50, 39, (1978).
The subject CK-1 male mice (23-27 grams) are group-housed under standard laboratory conditions. The mice are individually placed in wire mesh stick cages (4"×4" by 10") and are allowed one hour for adaptation and exploration of the new environment. Then apomorphine is injected subcutaneously at 1.5 mg/kg, a dose causing climbing in all subjects for 30 minutes. Compounds to be tested for antipsychotic activity are injected intraperitoneally 30 minutes prior to the apomorphine challenge at a screening dose of 10 mg/kg.
For evaluation of climbing, 3 readings are taken at 10, 20 and 30 minutes after apomorphine administration according to the following scale:
4 paws on bottom (no climbing)
2 paws on the wall (rearing)
4 paws on the wall (full climb)
Mice consistently climbing before the injection of apomorphine are discarded.
With full-developed apomorphine climbing, the animals are hanging onto the cage walls, rather motionless, over long periods of time. By constrast, climbs due to mere motor stimulation usually last only a few seconds.
The climbing scores are individually totaled (maximum score: 6 per mouse over 3 readings) and the total score of the control group (vehicle intraperitoneally; apomorphine subcutaneously) is set to 100%. ED50 values with 95% confidence limits, calculated by a linear regression analysis, of some of the compounds of this invention are presented in Table 2.
Results of the climbing mice assay for some of the compounds of this invention along with a result for a reference compounds are presented in Table 2.

The next assay concerns mice. Nature of the assay: 2-phenyl-1,4-benzoquinone-induced writhing (PQW) test in mice (analgesic activity). Conditions: for PQW: s.c. The source says:
Compounds I of the present invention are useful as analgesic agents due to their ability to alleviate pain in mammals. […] Exptl. Biol. Med., 95, 729 (1957)].
A general note: In writhing tests, fewer writhes than in controls are read as antinociception.

For another assay, the system named is male mice. As to the kind of experiment: supramaximal electroshock (SES) assay in the mouse (anticonvulsant activity). On the procedure:
Compounds I of the present invention are also useful as anticonvulsant agents due to their anticonvulsant activity in mammals. Anticonvulsant activity is measured in the mouse using the supramaximal electroshock (SES) assay described in Arch. Int. Pharmacodyn. 92: 97-107, 1952. In this procedure groups of male mice, 18-30 grams, are used. Drugs are prepared using distilled water and, if insoluble, a surfactant is added. Control animals receive vehicle. Drugs are routinely administered intraperitoneally (i.p.). The dosage volume is 10 ml/kg. A primary screen is given a 30 minute pretreat. The animal's eyes are placed across the output terminals of an A.C. shocker that delivers 206 volts rms for 300 msec. Electrode paste coats the animal's eyes at the point of contact with the terminals. […] Protection is expressed as normalized percent inhibition relative to vehicle control.
A time response is carried out using six animals/group. Animals are tested at 30, 60 and 120 minutes postdrug. Additional time periods are tested if indicated by previous tests. When the peak activity time has been determined, a dose response is initiated using 10 animals/group at that time period. The ED50 and 95% confidence interval are calculated by computer probit analysis.
Test results of supramaximal electroshock for a compound of this invention along with a result for a reference compound are presented in Table 3.
A general note: Protection in the maximal electroshock model is a classic sign of anticonvulsant action.

The mark [1] stands for this setting: ip, 30 minutes prior to apomorphine challenge.

One may read the ED50 as the dose at which the effect has come halfway, by size or by number of responders.

Molecule `CN1CCN(C2=Nc3cc(Cl)ccc3Nc3ccccc32)CC1` [Clozapine, reference compound] displayed a 50% effective dose (ED50) in the assay with CK-1 male mice (sc, reference compounds) of 8.1 mg/kg.
Regarding `CC(=O)N1CCC2(CC1)NC1=CC=CCC1=C1N=c3ccccc3=C12` [1'-Acetyl-5,6-dihydrospiro[1H-indolo[3,2-c]quinoline-6,4'-piperidine]], in the assay on mice (at 20 mg/kg), the PQW is -66%.
`CNC1=Nc2ccc(Cl)cc2C(c2ccccc2)=[N+]([O-])C1` [Chlorodiazepoxide, reference compound] had an ED50 with male mice (ip, reference compound) of 8 mg/kg.
As to `CCN1CCC2(CC1)NC1=CC=CCC1=C1N=c3ccccc3=C12` [1'-Ethyl-5,6-dihydrospiro[1H-indolo[3,2-c]quinoline-6,4'-piperidine]], the “supramaximal electroshock, normalized percent inhibition relative to vehicle control” value in the assay with male mice (at 60 mg/kg, i.p.) was -80%.
`CN1CCC2(CC1)c1c([nH]c3ccccc13)-c1ccc(Cl)cc1N2C` [3-Chloro-5,1'-dimethyl-5,6-dihydrospiro[1H-indolo-[3,2-c]quinoline-6,4'-piperidine]dihydrochloride] showed an ED50 in the assay on CK-1 male mice (setting [1]) of 13.2 mg/kg.
As to `CC(C)=CCN1CCC2(C)c3cc(O)ccc3CC1C2C` (stereo not drawn) [Pentazocine, reference compound], in the assay with mice (at 1.3 mg/kg, reference compound), the PQW was -50%.
As to `CN1CCC2(CC1)c1c([nH]c3ccccc13)-c1ccccc1N2C` [1',5-Dimethyl-5,6-dihydrospiro[1H-indolo[3,2-c]quinoline-6,4'-piperidine]fumarate, hemiethanolate], the 50% effective dose (ED50) is 19.8 mg/kg in the assay with CK-1 male mice (setting [1]) and 10.3 mg/kg with mice (Mus musculus, sc).
With `c1ccc(CCN2CCC3(CC2)Nc2ccccc2-c2[nH]c4ccccc4c23)cc1` [1'-Phenethyl-5,6-dihydrospiro[1H-indolo[3,2-c]quinoline-6,4'-piperidine]fumarate], the PQW with mice (at 5 mg/kg) was -55%.
